Laboratory results reported in publication PMC4689404, “2-Benzazolyl-4-Piperazin-1-Ylsulfonylbenzenecarbohydroxamic Acids as Novel Selective Histone Deacetylase-6 Inhibitors with Antiproliferative Activity” (PLoS ONE, 2015).
Like-named read-outs stand apart in the source and are kept apart here.

Columns and labels:
BT-549 = test: NCI 60 screen, five dose; type: cell-based; settings: Homo sapiens, Breast Cancer, GI50 = molar concentration, read-out: Log10 GI50 (converted)
CCRF-CEM = test: NCI 60 screen, five dose; type: cell-based; settings: Homo sapiens, Leukemia, GI50 = molar concentration, read-out: Log10 GI50 (converted)
T-47D = test: NCI 60 screen, five dose; type: cell-based; settings: Homo sapiens, T47D, Breast Cancer, GI50 = molar concentration, read-out: Log10 GI50 (converted)
SK-OV-3 = test: NCI 60 screen, five dose; type: cell-based; settings: Homo sapiens, Ovarian Cancer, GI50 = molar concentration, read-out: Log10 GI50 (converted)
HOP-92 = test: NCI 60 screen, five dose; type: cell-based; settings: Homo sapiens, Non-Small Cell Lung Cancer, GI50 = molar concentration, read-out: Log10 GI50 (converted)
HCC-2998 = test: NCI 60 screen, five dose; type: cell-based; settings: Homo sapiens, Colon Cancer, GI50 = molar concentration, read-out: Log10 GI50 (converted)
EKVX = test: NCI 60 screen, five dose; type: cell-based; settings: Homo sapiens, Non-Small Cell Lung Cancer, GI50 = molar concentration, read-out: Log10 GI50 (converted)
Melanoma cell lines = test: NCI 60 screen, five dose; type: cell-based, human; settings: for GI50: Homo sapiens; for no. cell lines used for the assay/no inhibited by compound: figures in parenthesis
NCI-H522 = test: NCI 60 screen, five dose; type: cell-based; settings: Homo sapiens, Non-Small Cell Lung Cancer, GI50 = molar concentration, read-out: Log10 GI50 (converted)
RPMI-8226 = test: NCI 60 screen, five dose; type: cell-based; settings: Homo sapiens, Leukemia, GI50 = molar concentration, read-out: Log10 GI50 (converted)
RXF 393 = test: NCI 60 screen, five dose; type: cell-based; settings: Homo sapiens, Renal Cancer, GI50 = molar concentration, read-out: Log10 GI50 (converted)
CNS cancer cell lines = test: NCI 60 screen, five dose; type: cell-based, human; settings: for GI50: Homo sapiens; for no. cell lines used for the assay/no inhibited by compound: figures in parenthesis
HCC4017 cells = test: Annexin V apoptosis assay; type: cell-based, human; settings: 18h, 40h, 64h
Method: For cell cycle analysis, cells were washed with PBS, fixed in 70% ethanol for 2 h, washed with PBS and resuspended in staining solution (0.1% Triton X-100, 0.2 mg/ml DNAse-free RNAse A and […]) and incubated at 37C for 15 min. Histograms were acquired on a BD FACSCalibur flow cytometer at UT Southwestern’s core facility. Apoptosis was measured using a FITC Annexin V Apoptosis Detection Kit I (BD Pharmingen) according to manufacturer’s protocol after treating cells with compounds as indicated in Figure legends.

[1] = molecular target: T1, partially purified HDAC1 from mouse A20 cells (Mus musculus, UniProt O09106); test: HDAC1 activity assay, partially purified enzyme, [3H]acetate-prelabeled histones; type: biochemical
T1 construct: from mouse A20 cells was used as enzyme source; endogenous in cells; host or cells: mouse A20 cells
Text: For inhibition assays, partially purified HDAC1 (70–80 fold enriched relative to crude samples) from mouse A20 cells was used as enzyme source. HDAC1 activity was purified by a combination of anion exchange chromatography (Mono Q), affinity chromatography (Poly-lysin agarose, Heparin Sepharose) and TSK size exclusion chromatography (Jesacher and Loidl, unpublished). HDAC1 protein was identified by immunoblotting using anti mouse HDAC1 antibodies (collaboration with Zymed Laboratories, Inc., San Francisco, California, USA). HDAC activity was determined as described by Sendra et al., [20] using [^3H]acetate-prelabeled chicken reticulocyte histones as substrate. 50 μL of mouse HDAC1 were incubated with different concentrations of compounds for 10 min on ice and 10 μL of total [^3H] acetate pre-labeled chicken reticulocyte histones (4 mg/mL) were added, resulting in a concentration of 41 μM. This mixture was incubated at 37°C for 1 h. The reaction was stopped by addition of 50 μL of 1 M HCl/0.4 M acetylacetate and 1 mL ethylacetate. After centrifugation at 10000 x g for 5 min an aliquot of 600 μL of the upper phase was counted for radioactivity in 3 mL liquid scintillation cocktail.

MALME-3M = test: NCI 60 screen, five dose; type: cell-based; settings: Homo sapiens, Melanoma, GI50 = molar concentration, read-out: Log10 GI50 (converted)
TK-10 = test: NCI 60 screen, five dose; type: cell-based; settings: Homo sapiens, Renal Cancer, GI50 = molar concentration, read-out: Log10 GI50 (converted)
NCI-H322M = test: NCI 60 screen, five dose; type: cell-based; settings: Homo sapiens, Non-Small Cell Lung Cancer, GI50 = molar concentration, read-out: Log10 GI50 (converted)
SK-MEL-28 = test: NCI 60 screen, five dose; type: cell-based; settings: Homo sapiens, Melanoma, GI50 = molar concentration, read-out: Log10 GI50 (converted)
MDA-MB-435 = test: NCI 60 screen, five dose; type: cell-based; settings: Homo sapiens, Melanoma, GI50 = molar concentration, read-out: Log10 GI50 (converted)
DU-145 = test: NCI 60 screen, five dose; type: cell-based; settings: Homo sapiens, Prostate Cancer, GI50 = molar concentration, read-out: Log10 GI50 (converted)
HCT-15 = test: NCI 60 screen, five dose; type: cell-based; settings: Homo sapiens, Colon Cancer, GI50 = molar concentration, read-out: Log10 GI50 (converted)
OVCAR-4 = test: NCI 60 screen, five dose; type: cell-based; settings: Homo sapiens, Ovarian Cancer, GI50 = molar concentration, read-out: Log10 GI50 (converted)
IGROV1 = test: NCI 60 screen, five dose; type: cell-based; settings: Homo sapiens, IGROV-1, Ovarian Cancer, GI50 = molar concentration, read-out: Log10 GI50 (converted)
KM12 = test: NCI 60 screen, five dose; type: cell-based; settings: Homo sapiens, Colon Cancer, GI50 = molar concentration, read-out: Log10 GI50 (converted)
MCF7 = test: NCI 60 screen, five dose; type: cell-based; settings: Homo sapiens, Breast Cancer, GI50 = molar concentration, read-out: Log10 GI50 (converted)
SF-295 = test: NCI 60 screen, five dose; type: cell-based; settings: Homo sapiens, CNS Cancer, GI50 = molar concentration, read-out: Log10 GI50 (converted)
OVCAR-5 = test: NCI 60 screen, five dose; type: cell-based; settings: Homo sapiens, Ovarian Cancer, GI50 = molar concentration, read-out: Log10 GI50 (converted)
[2] = Table 3, partially purified HDAC1, read-out: HDAC1 IC50

T1 sequence (O09106 whole entry): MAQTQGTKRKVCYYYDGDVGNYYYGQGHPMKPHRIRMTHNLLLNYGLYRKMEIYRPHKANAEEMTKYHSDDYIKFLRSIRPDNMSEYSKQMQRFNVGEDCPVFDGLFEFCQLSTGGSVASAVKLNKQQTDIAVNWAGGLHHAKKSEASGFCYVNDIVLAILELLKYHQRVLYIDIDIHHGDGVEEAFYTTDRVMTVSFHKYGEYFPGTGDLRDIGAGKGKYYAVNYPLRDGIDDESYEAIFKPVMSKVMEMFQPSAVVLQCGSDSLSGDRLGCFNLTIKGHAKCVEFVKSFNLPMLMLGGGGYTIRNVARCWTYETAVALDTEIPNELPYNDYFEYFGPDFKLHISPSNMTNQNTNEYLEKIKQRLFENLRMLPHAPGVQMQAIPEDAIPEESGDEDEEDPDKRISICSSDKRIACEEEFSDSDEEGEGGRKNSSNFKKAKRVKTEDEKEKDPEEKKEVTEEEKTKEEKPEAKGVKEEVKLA

Row | SMILES | GI50 (BT-549) [µM] | GI50 (CCRF-CEM) [µM] | GI50 (T-47D) [µM] | GI50 (SK-OV-3) [µM] | GI50 (HOP-92) [µM] | GI50 (HCC-2998) [µM] | GI50 (EKVX) [µM] | GI50 (Melanoma cell lines) [µM] | no. cell lines used for the assay/no inhibited by compound (Melanoma cell lines) | GI50 (NCI-H522) [µM] | GI50 (RPMI-8226) [µM] | GI50 (RXF 393) [µM] | GI50 (CNS cancer cell lines) [µM] | no. cell lines used for the assay/no inhibited by compound (CNS cancer cell lines) | Annexin V staining, percent of dead cells (HCC4017 cells) | IC50 [1, 2] [µM] | GI50 (MALME-3M) [µM] | GI50 (TK-10) [µM] | GI50 (NCI-H322M) [µM] | GI50 (SK-MEL-28) [µM] | other results
1 | O=C(NO)c1ccc(S(=O)(=O)N2CCN(c3nc4ccccc4o3)CC2)cc1 [Compound 9c, 4-(4-Benzoxazol-2-yl-piperazin-1-sulfonyl)-N -hydroxy-benzamid] | 12 | 1.78 | 5.75 | 14.8 | 6.03 | 17.4 | 8.91 | 5.62 | 6/8 | 6.03 | 0.38 | 4.47 | 5.82 | 4/6 | did not show any reproducible significant changes | 5.7 | 1.38 | 7.94 | 14.5 | 4.57 | GI50 (MDA-MB-435): 3.63 µM; GI50 (DU-145): 7.41 µM; GI50 (HCT-15): 18.2 µM; GI50 (OVCAR-4): 4.9 µM; GI50 (IGROV1): 11 µM; GI50 (KM12): 5.13 µM; GI50 (MCF7): 3.8 µM; GI50 (SF-295): 3.09 µM; GI50 (OVCAR-5): 10.2 µM
2 | O=C(NO)c1ccc(S(=O)(=O)N2CCN(c3nc4ccccc4s3)CC2)cc1 [Compound 9d, 4-(4-Benzothiazol-2-yl-piperazin-1-sulfonyl)-N -hydroxy-benzamid] | 2.4 | 1.82 | 3.89 | 7.76 | 2.57 | 2.14 | 4.37 | 2.66 | 5/8 | 2.29 | 1.38 | 2 | 2.77 | 4/6 | – | 4.8 | 2.57 | 3.63 | 5.62 | 1.58 | GI50 (MDA-MB-435): 1.86 µM; GI50 (DU-145): 3.02 µM; GI50 (HCT-15): 3.98 µM; GI50 (OVCAR-4): 3.8 µM; GI50 (IGROV1): 3.55 µM; GI50 (KM12): 2.14 µM; GI50 (MCF7): 15.8 µM; GI50 (SF-295): 1.86 µM; GI50 (OVCAR-5): 7.76 µM
3 | Cn1c(N2CCN(S(=O)(=O)c3ccc(C(=O)NO)cc3)CC2)nc2ccccc21 [Compound 9b, 4-[4-(1-methylbenzimidazol-2-yl)piperazin-1-yl]sulfonylbenzenecarbohydroxamic acid] | – | – | – | – | – | – | – | – | – | – | – | – | – | – | did not show any reproducible significant changes | 12.4 | – | – | – | – | IC50 ([1]; partially purified HDAC1 from mouse A20 cells, Fig 4 and text, read-out: HDAC1 Inhibit (IC50)): ~12 µM
